Measured values from PMC6825221, “In silico re-engineering of a neurotransmitter to activate KCNQ potassium channels in an isoform-specific manner” (Communications Biology, 2019).
Values joined by “and” are separate entries in the source; they are usually repeats but may differ in a detail not shown here. Equal values may be shown once.

Tests used:
KCNQ2/3 = KCNQ2/3 (Homo sapiens, UniProt O43525+O43526); experiment: TEVC of KCNQ2/3 channels expressed in Xenopus oocytes; type: cell-based
Source text: We generated cRNA transcripts encoding human KCNQ1, KCNQ2, KCNQ3, KCNQ4, KCNQ5 or GLRA1 (NM_001146040) (GenScript, Piscataway, NJ, USA) by in vitro transcription using the T7 polymerase mMessage mMachine kit (Thermo Fisher Scientific), after vector linearization, from cDNA sub-cloned into plasmids incorporating Xenopus laevis β-globin 5′ and 3′ UTRs flanking the coding region to enhance translation and cRNA stability. We quantified cRNA by spectrophotometry. […] We injected defolliculated stage V and VI Xenopus laevis oocytes (Ecocyte Bioscience, Austin, TX and Xenoocyte, Dexter, MI) with KCNQ channel α subunit (5-20 ng) or GLRA1 (20 ng) cRNAs. We incubated the oocytes at 16 °C in Barth’s saline solution (Ecocyte Bioscience) containing penicillin and streptomycin, with daily washing, for 2–5 days prior to two-electrode voltage-clamp (TEVC) recording.
For recording, oocytes were placed in a small-volume oocyte bath (Warner) and viewed them with a dissection microscope. Chemicals were sourced from Sigma, Matrix Scientific and Santa Cruz. […] All stock solutions were diluted in bath solution on the day of experiments. KCNQ2/3 channel activation was screened for using either 30 µM or 100 µM concentrations of each of the six compounds, then dose responses were conducted as appropriate. Bath solution was (in mM): 96 NaCl, 4 KCl, 1 MgCl2, 1 CaCl2, 10 HEPES (pH 7.6). Compounds were introduced into the oocyte recording bath by gravity perfusion at a constant flow of 1 ml per minute for 3 min prior to recording. Pipettes were of 1–2 MΩ resistance when filled with 3 M KCl. Currents were recorded in response to voltage pulses between −120 or −80 mV and + 40 mV at 20 mV intervals from a holding potential of −80 mV, to yield current-voltage relationships, current magnitude, and for quantifying activation rate. We analyzed data using Clampfit (Molecular Devices) and Graphpad Prism software (GraphPad, San Diego, CA, USA); values are stated as mean ± SEM. We plotted raw or normalized tail currents versus prepulse voltage and fitted with a single Boltzmann function:1 g=(A1−A2)/1+exp(V12−V)∕VS+A2, where g is the normalized tail conductance, A1 is the initial value at −∞, A2 is the final value at +∞, V1/2 is the half-maximal voltage of activation and Vs the slope factor. Activation, deactivation, wash-in and washout kinetics were fitted with single exponential functions to yield a τ value.

KCNQ2 = KCNQ2 (Homo sapiens, UniProt O43526); experiment: Relative ion permeability of KCNQ2; type: cell-based; parameters: dose or concentration left out as unconfirmed
Source text: According to the Goldman–Hodgkin–Katz (GHK) voltage equation:2 Erev=RT∕Fln(PK[K^+]O+PNa[Na]O+PCl[Cl]i)/(PK[K^+]i+PNa[Na]i+PCl[Cl]o), where Erev is the absolute reversal potential and P is permeability. This permits calculation of the relative permeability of each ion if concentrations on either side of the membrane are known. A modified version of this equation was used here to determine relative permeability of two ions in a system in which only the extracellular ion concentration was known. Thus, relative permeability of Rb^+, Cs^+, and Na^+ compared to K^+ ions was calculated for KCNQ2 and KCNQ3* by plotting the I/V relationships for each channel with each extracellular ion (100 mM) (using the voltage protocol shown in Fig. 9g) and comparing them to that with 100 mM extracellular K^+ ion to yield a change in reversal potential (ΔErev) for each ion compared to that of K^+. Permeability ratios for each ion (X) compared to K^+ were then calculated as3 ΔErev=Erev,X−Erev,K=lnPX/PK. […]

[1] = 100 µM, −60 mV, single exponential fit

Chain of KCNQ2/3 (O43525 whole entry): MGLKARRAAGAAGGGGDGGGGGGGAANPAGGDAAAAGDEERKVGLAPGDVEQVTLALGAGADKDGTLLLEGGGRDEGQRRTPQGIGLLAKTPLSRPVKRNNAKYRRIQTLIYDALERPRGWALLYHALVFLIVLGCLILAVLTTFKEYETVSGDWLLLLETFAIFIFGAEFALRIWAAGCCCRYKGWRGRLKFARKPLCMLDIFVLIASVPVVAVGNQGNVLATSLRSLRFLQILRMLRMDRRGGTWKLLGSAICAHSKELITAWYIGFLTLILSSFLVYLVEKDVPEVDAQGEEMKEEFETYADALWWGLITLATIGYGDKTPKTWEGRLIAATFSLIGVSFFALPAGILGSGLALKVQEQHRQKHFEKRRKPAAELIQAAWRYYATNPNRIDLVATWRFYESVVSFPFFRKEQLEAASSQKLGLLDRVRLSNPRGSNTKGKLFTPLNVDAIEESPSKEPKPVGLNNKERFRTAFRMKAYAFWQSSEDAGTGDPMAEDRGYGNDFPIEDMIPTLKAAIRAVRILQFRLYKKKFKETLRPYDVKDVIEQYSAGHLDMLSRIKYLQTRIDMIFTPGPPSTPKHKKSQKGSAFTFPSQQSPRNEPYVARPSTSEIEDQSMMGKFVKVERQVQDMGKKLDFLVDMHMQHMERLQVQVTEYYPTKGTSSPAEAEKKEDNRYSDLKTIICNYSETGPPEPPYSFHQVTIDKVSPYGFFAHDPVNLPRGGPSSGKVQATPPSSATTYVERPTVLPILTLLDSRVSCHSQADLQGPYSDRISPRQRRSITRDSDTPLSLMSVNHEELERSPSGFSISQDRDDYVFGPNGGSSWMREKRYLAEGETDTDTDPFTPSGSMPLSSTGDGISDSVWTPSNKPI
Chain of KCNQ2/3 (O43526 whole entry): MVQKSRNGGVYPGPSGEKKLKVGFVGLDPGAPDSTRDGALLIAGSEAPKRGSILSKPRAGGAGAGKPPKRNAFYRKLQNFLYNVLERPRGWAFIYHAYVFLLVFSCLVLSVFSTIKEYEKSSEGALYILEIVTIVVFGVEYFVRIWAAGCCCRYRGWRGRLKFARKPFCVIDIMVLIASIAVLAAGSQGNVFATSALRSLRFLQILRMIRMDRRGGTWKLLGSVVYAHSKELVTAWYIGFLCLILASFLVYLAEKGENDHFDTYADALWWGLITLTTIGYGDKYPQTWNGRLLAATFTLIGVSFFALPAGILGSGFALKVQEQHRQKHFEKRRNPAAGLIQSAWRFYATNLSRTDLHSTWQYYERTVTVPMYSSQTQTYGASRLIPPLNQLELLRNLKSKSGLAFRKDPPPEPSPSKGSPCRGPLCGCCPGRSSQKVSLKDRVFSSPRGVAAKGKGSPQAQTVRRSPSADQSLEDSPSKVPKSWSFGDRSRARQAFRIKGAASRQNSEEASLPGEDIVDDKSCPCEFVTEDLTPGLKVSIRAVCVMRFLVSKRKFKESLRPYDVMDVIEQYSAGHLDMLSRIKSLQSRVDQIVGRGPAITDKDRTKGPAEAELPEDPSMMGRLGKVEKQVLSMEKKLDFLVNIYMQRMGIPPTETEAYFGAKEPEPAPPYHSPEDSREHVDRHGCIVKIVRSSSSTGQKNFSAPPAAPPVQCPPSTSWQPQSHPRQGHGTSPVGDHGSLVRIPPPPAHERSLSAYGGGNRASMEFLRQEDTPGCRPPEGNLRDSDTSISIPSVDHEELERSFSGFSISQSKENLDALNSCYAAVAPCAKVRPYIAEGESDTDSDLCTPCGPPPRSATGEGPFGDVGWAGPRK

SMILES: CS(=O)(=O)N(CC(=O)O)c1cccc(F)c1 [3FMSG]
- KCNQ2/3 activation and deactivation rates (KCNQ2/3; 100 µM, single exponential fit (τ)): speeded KCNQ2/3 activation and slowed its deactivation
- tau of KCNQ2/3 current decrease during washout (KCNQ2/3; [1]): 40 s and 39 ± 10 s
- tau of KCNQ2/3 current increase during wash-in (KCNQ2/3; [1]): ~ 15 s and 15 ± 3 s
- increase in KCNQ2/3 current at −60 mV (KCNQ2/3; either compound alone, 1 uM): ~ fivefold
- EC50 (KCNQ2/3; shift in voltage dependence of activation (ΔV0.5act), TEVC in oocytes, read-out: EC50, KCNQ2/3 activation): 51 ± 21 nM
- relative Na+ permeability (compared to K+) of KCNQ2 (KCNQ2): not KCNQ2
